Measured values: patent US7652071B2, “Penetration of active substances into cells and organs” (Alpha-Biocare GmbH, priority 2003, dated 2010)

System: Angiostrongylus cantonensis
Assay: Detection of worm stages in the brain of Wistar rats experimentally infected with Angiostrongylus cantonensis after oral treatment
Type: in vivo
Description: Each rat was infected with precisely 60 L3 larvae. From day 5 post-infection onwards, mebendazole was administered once daily on three successive days at the dosage rates and in the formulations stated. The worms were detected on day 21 post-infection.

COC(=O)Nc1nc2ccc(C(=O)c3ccccc3)cc2[nH]1 [Mebendazole, mebendazole]
Worm detection in the brain (aqueous suspension, mebendazole 10 mg/kg body weight oral, once daily on three successive days from day 5 post-infection, worms detected day 21, % of infection control (55 worms = 100%)): 98.2% | Worm reduction in the brain (mebendazole with the aid of the carrier system, at a more than 30-fold reduced mebendazole dose): significant worm reduction in the brain
